Measurements: article PMC6880814, “Skeletocutins M–Q: biologically active compounds from the fruiting bodies of the basidiomycete Skeletocutis sp. collected in Africa” (Beilstein Journal of Organic Chemistry, 2019)
Converted amounts (≈) assume the structure as drawn. “And” between values parts separate entries of the source, which are not always exact repeats. Identical values can stand only once. “Also recorded” adds a separate entry of the source.

What was measured:
[1] = test system: surface-bound aminopeptidases of KB3.1 cells; experiment: Inhibition of ʟ-Leu-AMC hydrolysis (leucine aminopeptidases); type: cell-based; details: for IC50, inhibition of ʟ-Leu-AMC hydrolysis: KB3.1 cells
Description: Hydrolysis of ʟ-Leu-AMC by the surface-bound aminopeptidases of KB3.1 cells was assayed based on the method from Weber and co-workers with slight modifications. KB3.1 cells were grown as monolayer cultures in Dulbecco's modified Eagle's medium (DMEM) containing 10% fetal calf serum at 37 °C in 24-well multidishes. After three days, the confluent monolayers were washed twice with phosphate buffered saline (PBS), and the reaction mixture (450 µL Hanks' buffer at pH 7.2 containing 50 or 100 µM substrate ʟ-Leu-AMC, compounds dissolved in 50 µL DMSO) was added. After being incubated at 23 °C for 30 min, 1 mL cold 0.2 M glycine buffer at pH 10.5 was added. The amount of hydrolyzed 7-amino-4-methylcoumarin (AMC) was measured in a Tecan Infinite M200 PRO fluorescence spectrophotometer (excitation and emission at λ = 365 and 440 nm, respectively). Bestatin [12] and DMSO were used as positive and negative control, respectively.

S. aureus DSM1104 = experiment: Inhibition of biofilm formation; type: cell-based, Staphylococcus aureus; set-up: biofilm inhibition results from plate reader: reference not given here; details: for biofilm inhibition results from plate reader: raw reading, replications 1-3; for inhibition of biofilm formation (in words): S. aureus
Description: The assay was performed in Falcon® 96-well flat bottom plates as previously described. […] Methanol was used as negative control, while tetracycline was used as positive control. All experiments were made in triplicates.

[2] = test system: surface-bound aminopeptidases of KB3.1 cells; experiment: Inhibition of ʟ-Leu-AMC hydrolysis (leucine aminopeptidases); type: cell-based; details: at 50 and 110 µM substrate concentration
[3] = test system: leucine aminopeptidase in HeLa S3 cells; set-up: method as in PMID 1620745; details: 50 μM substrate concentration; cited from earlier work
[4] = test system: several Gram-positive bacteria (Bacillus subtilis, S. aureus, MRSA, Micrococcus luteus); set-up: method as in PMID 31310114; details: B. subtilis, M. luteus; cited from earlier work

Row | Compound | IC50, inhibition of ʟ-Leu-AMC hydrolysis ([1]; ʟ-Leu-AMC (50 µM)) | IC50, inhibition of ʟ-Leu-AMC hydrolysis ([1]; ʟ-Leu-AMC (100 µM)) | IC50, inhibition of ʟ-Leu-AMC hydrolysis [2] | biofilm inhibition results from plate reader (S. aureus DSM1104; 8 µg/ml) | biofilm inhibition results from plate reader (S. aureus DSM1104; 16 µg/ml) | biofilm inhibition results from plate reader (S. aureus DSM1104; 32 µg/ml) | biofilm inhibition results from plate reader (S. aureus DSM1104; 64 µg/ml) | biofilm inhibition results from plate reader (S. aureus DSM1104; 128 µg/ml) | biofilm inhibition results from plate reader (S. aureus DSM1104; 256 µg/ml) | inhibition of biofilm formation (in words) (S. aureus DSM1104) | ʟ-Leu-AMC inhibition assay (in words) [1] | IC50, similar assay against HeLa S3 cells [3] | activity against Gram-positive bacteria (in words) [4]
1 | CC(C)C[C@H](NC(=O)[C@@H](O)[C@H](N)Cc1ccccc1)C(=O)O [Bestatin, reference compound] | 10.8 µg/mL | 40.9 µg/mL |  |  |  |  |  |  |  |  |  |  | 
2 | CC1=C(CCCCCCCCCCCCCCCCCCCCC2=C(C)C(=O)OC2=O)C(=O)OC1=O [Compound 2, skeletocutin N] |  |  |  | 3.048 and 2.841 and 2.718 | 2.916 and 2.987 and 2.995 | 3.176 and 3.059 and 3.016 | 2.823 and 3.791 and 2.979 | 3.623 and 4.381 and 3.14 | 4.44 and 4.077 and 4.364 |  |  |  | 
3 | CN(C)[C@@H]1C(O)=C(C(N)=O)C(=O)[C@@]2(O)C(O)=C3C(=O)c4c(O)cccc4[C@@](C)(O)[C@H]3C[C@@H]12 [Tetracycline, reference compound] |  |  |  |  |  | 1.107 and 1.315 and 1.404 and 1.155 and 0.918 and 0.791 | 0.885 and 0.917 and 0.836 and 0.83 and 0.627 and 0.95 | 0.622 and 0.527 and 0.478 and 0.693 and 0.655 and 0.765 | 0.462 and 0.414 and 0.487 and 0.644 and 0.444 and 0.498 |  |  |  | 
4 | CC1=C(CCCCCCCCCCCCCCCCCCC2=C(C)C(=O)OC2=O)C(=O)OC1=O [Compound 1, 1,18-bis[4′-methyl-2′,5′-dioxo-3′-furyl]octadecane] |  |  |  | 3.282 and 3.031 and 2.758 | 3.706 and 3.472 and 3.059 | 3.45 and 3.219 and 3.38 | 3.207 and 4.69 and 3.419 | 3.365 and 3.804 and 3.615 | 4.909 and 5.651 and 4.54 |  |  |  | 

Continued, in another order:

Row | IC50, inhibition of ʟ-Leu-AMC hydrolysis ([1]; ʟ-Leu-AMC (50 µM)) | IC50, inhibition of ʟ-Leu-AMC hydrolysis ([1]; ʟ-Leu-AMC (100 µM)) | IC50, inhibition of ʟ-Leu-AMC hydrolysis [2] | Compound | biofilm inhibition results from plate reader (S. aureus DSM1104; 8 µg/ml) | biofilm inhibition results from plate reader (S. aureus DSM1104; 16 µg/ml) | biofilm inhibition results from plate reader (S. aureus DSM1104; 32 µg/ml) | biofilm inhibition results from plate reader (S. aureus DSM1104; 64 µg/ml) | biofilm inhibition results from plate reader (S. aureus DSM1104; 128 µg/ml) | biofilm inhibition results from plate reader (S. aureus DSM1104; 256 µg/ml) | inhibition of biofilm formation (in words) (S. aureus DSM1104) | ʟ-Leu-AMC inhibition assay (in words) [1] | IC50, similar assay against HeLa S3 cells [3] | activity against Gram-positive bacteria (in words) [4]
5 | 153.2 µg/mL | 225.3 µg/mL | > 80 µg/mL | CC1=C(CCCCCCCCCCCCCCCCCCC(C(=O)O)C(CC(=O)O)C(=O)O)C(=O)OC1=O (stereo not drawn) [Compound 5, 21-(4’-methyl-2’,5’-dioxo-2’,5’-dihydrofuran-3’-yl)henicosane-1,2,3-tricarboxylic acid] | 3.444 and 2.956 and 3.704 | 3.633 and 3.438 and 3.879 | 4.452 and 3.838 and 3.757 | 3.708 and 3.627 and 3.623 | 3.871 and 3.836 and 3.597 | 3.822 and 3.87 and 3.988 | weakly inhibit |  |  | 
6 | 89.6 µg/mL | 130.4 µg/mL | > 80 µg/mL | CC1=C(CCCCCCCCCCCCCCCCCC/C=C(\CC(=O)O)C(=O)O)C(=O)OC1=O [Compound 3, (E)-2-(19-(4’-methyl-2’,5’-dioxo-2’,5’-dihydrofuran-3’-yl)nonadecylidene)butanedioic acid] | 2.88 and 3.631 and 3.132 | 2.837 and 3.385 and 3.2 | 2.875 and 3.534 and 3.458 | 3.373 and 3.63 and 3.041 | 3.752 and 3.854 and 3.496 | 1.742 and 2.419 and 2.26 | moderately inhibited; also recorded: weakly inhibit | performed moderately |  | 
7 | 138.4 µg/mL |  |  | CC1=C(CCCCCCCCCCCCCCCCC2=C(C)C(=O)OC2=O)C(=O)OC1=O [Compound 6, tyromycin A] | 3.766 and 3.772 and 3.586 | 3.612 and 3.954 and 4.007 | 3.328 and 3.954 and 3.188 | 3.105 and 3.723 and 3.478 | 3.861 and 2.858 and 2.819 | 4.54 and 3.949 and 6 |  |  | 31 µg/mL (≈ 69.4 µM) | active
8 | 71.1 µg/mL | 102.3 µg/mL |  | CC1=C(CCCCCCCCCCCCCCCCC/C=C(\C(=O)O)C(CC(=O)O)C(=O)O)C(=O)OC1=O (stereo not drawn) [Compound 4, (Z)-21-(4’-methyl-2’,5’-dioxo-2’,5’-dihydrofuran-3’-yl)henicos-3-ene-1,2,3-tricarboxylic acid] | 4.243 and 3.452 and 3.554 | 4.47 and 3.878 and 4.114 | 4.702 and 3.439 and 4.271 | 3.957 and 3.887 and 3.524 | 4.03 and 4.115 and 4.224 | 6 and 5.066 and 4.841 |  | performed moderately |  | 
